Test results from patent US9670194B2 (Calitor Sciences, LLC, priority 2013, dated 2017).

Columns and labels:
[1] = Compound stability in human liver microsomes; assay type: in vitro ADME; details: for half-life at 5 μM: human liver microsomes 0.5 mg protein/mL, compound 5 μM, NADPH 1.0 mM, 37° C.; for CLint scaled at 5 μM: human liver microsomes, in vivo CLint extrapolated
PI3K (p110β/p85α) (h) = PI3K (p110β/p85α) (h) (Homo sapiens (Human), UniProt P42338); test: PI3K (p110β/p85α) (h) non-radioactive HTRF kinase assay; assay type: biochemical
Chain of PI3K (p110β/p85α) (h) (P42338 whole entry): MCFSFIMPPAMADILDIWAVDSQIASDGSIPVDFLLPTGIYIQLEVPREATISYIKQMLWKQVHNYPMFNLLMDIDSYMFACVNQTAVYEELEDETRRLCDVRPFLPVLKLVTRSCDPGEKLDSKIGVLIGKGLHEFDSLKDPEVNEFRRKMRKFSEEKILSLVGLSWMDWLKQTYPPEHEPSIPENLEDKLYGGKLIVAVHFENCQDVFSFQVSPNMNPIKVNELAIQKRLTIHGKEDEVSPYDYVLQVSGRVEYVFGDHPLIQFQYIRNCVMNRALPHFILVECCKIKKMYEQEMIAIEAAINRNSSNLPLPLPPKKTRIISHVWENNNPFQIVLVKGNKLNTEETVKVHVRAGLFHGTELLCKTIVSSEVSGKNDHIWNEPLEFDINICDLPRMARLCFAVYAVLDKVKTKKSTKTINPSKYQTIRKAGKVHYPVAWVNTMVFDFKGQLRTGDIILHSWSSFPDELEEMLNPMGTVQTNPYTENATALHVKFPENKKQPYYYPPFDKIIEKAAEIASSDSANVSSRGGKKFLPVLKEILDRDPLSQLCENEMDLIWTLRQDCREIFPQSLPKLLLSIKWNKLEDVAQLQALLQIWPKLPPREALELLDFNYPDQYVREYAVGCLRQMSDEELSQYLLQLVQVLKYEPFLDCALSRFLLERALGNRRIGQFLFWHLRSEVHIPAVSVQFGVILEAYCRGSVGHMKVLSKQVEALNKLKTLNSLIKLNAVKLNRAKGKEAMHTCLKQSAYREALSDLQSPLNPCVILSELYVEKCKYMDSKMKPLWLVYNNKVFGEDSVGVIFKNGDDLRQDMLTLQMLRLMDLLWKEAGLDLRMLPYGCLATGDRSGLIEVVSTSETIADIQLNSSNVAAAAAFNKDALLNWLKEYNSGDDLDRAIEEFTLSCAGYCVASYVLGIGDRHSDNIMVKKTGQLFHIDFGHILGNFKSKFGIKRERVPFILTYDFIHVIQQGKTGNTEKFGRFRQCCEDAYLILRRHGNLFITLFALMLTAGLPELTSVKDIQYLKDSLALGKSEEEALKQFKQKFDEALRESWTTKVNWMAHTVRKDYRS
Chain of PI3K (p110β/p85α) (h) (P27986 whole entry partner): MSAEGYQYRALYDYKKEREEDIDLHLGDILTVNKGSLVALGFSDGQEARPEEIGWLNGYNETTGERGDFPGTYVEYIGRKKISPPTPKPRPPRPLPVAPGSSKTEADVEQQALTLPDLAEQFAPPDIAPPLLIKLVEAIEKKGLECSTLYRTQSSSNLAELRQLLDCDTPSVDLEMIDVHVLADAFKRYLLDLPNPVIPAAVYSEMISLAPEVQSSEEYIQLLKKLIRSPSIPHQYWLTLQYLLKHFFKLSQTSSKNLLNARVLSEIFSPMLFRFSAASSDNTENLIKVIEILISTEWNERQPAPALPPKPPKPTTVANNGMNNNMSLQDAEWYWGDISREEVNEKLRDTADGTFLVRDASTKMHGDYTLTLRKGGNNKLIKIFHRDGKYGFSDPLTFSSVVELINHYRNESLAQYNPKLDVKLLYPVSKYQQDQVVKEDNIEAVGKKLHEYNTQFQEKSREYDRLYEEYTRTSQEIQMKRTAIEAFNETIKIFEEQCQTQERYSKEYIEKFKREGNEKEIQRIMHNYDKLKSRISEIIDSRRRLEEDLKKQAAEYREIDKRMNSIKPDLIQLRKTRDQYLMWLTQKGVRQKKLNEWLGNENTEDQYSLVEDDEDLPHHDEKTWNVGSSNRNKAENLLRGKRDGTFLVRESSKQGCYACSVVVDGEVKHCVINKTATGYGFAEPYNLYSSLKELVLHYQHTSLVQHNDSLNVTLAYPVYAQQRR

PI3K (p120γ) (h) = PI3K (p120γ) (h) (Homo sapiens (Human), UniProt P48736); test: PI3K (p120γ) (h) non-radioactive HTRF kinase assay; assay type: biochemical
Chain of PI3K (p120γ) (h) (P48736 whole entry): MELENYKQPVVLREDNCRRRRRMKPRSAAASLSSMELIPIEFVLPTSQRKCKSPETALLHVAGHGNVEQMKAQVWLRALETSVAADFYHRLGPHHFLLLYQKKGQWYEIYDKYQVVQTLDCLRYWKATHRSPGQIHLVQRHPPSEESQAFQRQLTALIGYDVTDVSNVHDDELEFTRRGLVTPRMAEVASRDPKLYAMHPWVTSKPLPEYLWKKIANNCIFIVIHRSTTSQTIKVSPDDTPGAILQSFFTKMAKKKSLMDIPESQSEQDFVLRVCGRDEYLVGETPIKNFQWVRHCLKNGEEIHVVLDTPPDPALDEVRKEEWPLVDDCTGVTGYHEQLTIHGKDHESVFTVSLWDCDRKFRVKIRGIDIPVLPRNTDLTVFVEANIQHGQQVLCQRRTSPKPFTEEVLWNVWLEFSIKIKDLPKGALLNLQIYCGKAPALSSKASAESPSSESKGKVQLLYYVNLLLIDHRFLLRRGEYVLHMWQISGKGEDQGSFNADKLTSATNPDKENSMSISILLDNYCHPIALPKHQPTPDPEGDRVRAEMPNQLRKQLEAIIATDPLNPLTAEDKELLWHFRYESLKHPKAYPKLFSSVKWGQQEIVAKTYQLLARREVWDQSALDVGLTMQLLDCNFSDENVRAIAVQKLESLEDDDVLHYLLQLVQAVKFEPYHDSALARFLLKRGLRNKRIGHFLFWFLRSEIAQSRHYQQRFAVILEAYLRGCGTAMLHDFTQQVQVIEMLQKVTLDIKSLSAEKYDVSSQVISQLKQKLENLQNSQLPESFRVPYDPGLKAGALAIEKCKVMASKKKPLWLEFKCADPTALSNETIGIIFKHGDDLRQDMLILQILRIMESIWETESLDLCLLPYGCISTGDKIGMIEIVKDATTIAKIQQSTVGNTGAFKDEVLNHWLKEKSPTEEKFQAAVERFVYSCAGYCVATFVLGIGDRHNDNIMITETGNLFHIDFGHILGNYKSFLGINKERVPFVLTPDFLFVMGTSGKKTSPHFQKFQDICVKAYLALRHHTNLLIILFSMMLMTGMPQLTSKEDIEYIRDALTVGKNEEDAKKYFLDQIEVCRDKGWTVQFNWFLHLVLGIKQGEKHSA

[2] = Pharmacokinetics after intravenous and oral administration in rats; assay type: in vivo, rat; details: for clearance (CL) / AUC(0-t) / half-life / Vd: iv dosing; for bioavailability / AUC(0-t) / half-life / Vd: rat, plasma; for bioavailability: oral dose generally 5 or 10 mg/kg; for Vd: read-out: Vss
PI3K (p110α/p85α) (h) = PI3K (p110α/p85α) (h) (Homo sapiens (Human), UniProt P42336); test: PI3K (p110α/p85α) (h) non-radioactive HTRF kinase assay; assay type: biochemical
Chain of PI3K (p110α/p85α) (h) (P42336 whole entry): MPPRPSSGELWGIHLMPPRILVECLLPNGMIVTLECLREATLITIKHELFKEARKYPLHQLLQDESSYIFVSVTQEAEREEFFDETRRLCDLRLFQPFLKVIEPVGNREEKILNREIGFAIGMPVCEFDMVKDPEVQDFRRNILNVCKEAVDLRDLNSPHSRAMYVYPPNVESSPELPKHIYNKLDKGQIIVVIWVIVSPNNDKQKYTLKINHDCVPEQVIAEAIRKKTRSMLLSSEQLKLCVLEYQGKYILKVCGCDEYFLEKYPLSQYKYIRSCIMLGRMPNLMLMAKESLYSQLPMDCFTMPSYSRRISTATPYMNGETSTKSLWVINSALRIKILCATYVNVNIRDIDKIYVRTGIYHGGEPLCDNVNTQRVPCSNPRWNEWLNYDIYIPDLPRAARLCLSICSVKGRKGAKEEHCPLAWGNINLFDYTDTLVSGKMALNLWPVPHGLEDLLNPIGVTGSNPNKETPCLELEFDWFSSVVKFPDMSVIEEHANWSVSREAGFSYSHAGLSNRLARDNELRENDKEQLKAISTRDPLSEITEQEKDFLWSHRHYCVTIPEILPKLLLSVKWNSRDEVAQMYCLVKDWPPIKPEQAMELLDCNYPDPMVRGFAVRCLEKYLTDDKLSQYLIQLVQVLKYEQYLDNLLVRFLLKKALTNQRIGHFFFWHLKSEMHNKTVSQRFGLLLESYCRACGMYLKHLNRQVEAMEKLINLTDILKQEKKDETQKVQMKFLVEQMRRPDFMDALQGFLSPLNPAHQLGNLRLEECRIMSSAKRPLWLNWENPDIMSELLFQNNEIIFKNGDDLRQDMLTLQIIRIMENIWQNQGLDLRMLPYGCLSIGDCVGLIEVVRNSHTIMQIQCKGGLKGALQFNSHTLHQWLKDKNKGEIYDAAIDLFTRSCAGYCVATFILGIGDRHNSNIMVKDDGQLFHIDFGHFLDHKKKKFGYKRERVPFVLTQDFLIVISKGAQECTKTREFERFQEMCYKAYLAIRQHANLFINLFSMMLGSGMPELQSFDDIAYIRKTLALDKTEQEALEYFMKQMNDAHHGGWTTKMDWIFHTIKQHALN
Chain of PI3K (p110α/p85α) (h) (P27986 whole entry partner): as the sequence (P27986 whole entry partner) above

[3] = Compound stability in rat liver microsomes; assay type: in vitro ADME; details: pH 7.4; for half-life at 5 μM: rat liver microsomes 0.5 mg protein/mL, compound 5 μM, NADPH 1.0 mM, 37° C.; for CLint scaled at 5 μM: rat liver microsomes, in vivo CLint extrapolated
[4] = Pharmacokinetics after intravenous and oral administration in mice; assay type: in vivo; details: Mouse; for CL/F / AUC(0-t) / half-life / Vd: iv dosing, dose 1 mg/kg; for bioavailability / AUC(0-t) / half-life / Vd: plasma; for bioavailability: iv dose 1 mg/kg, oral dose generally 5 or 10 mg/kg; for Vd: read-out: Vss
[5] = Pharmacokinetics after intravenous and oral administration in dogs; assay type: in vivo; details: Dog; for CL/F / AUC(0-t) / half-life / Vd: iv dosing, dose 1 mg/kg; for bioavailability / AUC(0-t) / half-life / Vd: plasma; for bioavailability: iv dose 1 mg/kg, oral dose generally 10 mg/kg; for Vd: read-out: Vss
[6] = Pharmacokinetics after intravenous and oral administration in monkeys; assay type: in vivo; details: Monkey; for CL/F / AUC(0-t) / half-life / Vd: iv dosing, dose 1 mg/kg; for bioavailability / AUC(0-t) / half-life / Vd: plasma; for bioavailability: iv dose 1 mg/kg, oral dose generally 10 mg/kg; for Vd: read-out: Vss
PI3K (p110δ/p85α) (h) = PI3K (p110δ/p85α) (h) (Homo sapiens (Human), UniProt O00329); test: PI3K (p110δ/p85α) (h) non-radioactive HTRF kinase assay; assay type: biochemical
Chain of PI3K (p110δ/p85α) (h) (O00329 whole entry): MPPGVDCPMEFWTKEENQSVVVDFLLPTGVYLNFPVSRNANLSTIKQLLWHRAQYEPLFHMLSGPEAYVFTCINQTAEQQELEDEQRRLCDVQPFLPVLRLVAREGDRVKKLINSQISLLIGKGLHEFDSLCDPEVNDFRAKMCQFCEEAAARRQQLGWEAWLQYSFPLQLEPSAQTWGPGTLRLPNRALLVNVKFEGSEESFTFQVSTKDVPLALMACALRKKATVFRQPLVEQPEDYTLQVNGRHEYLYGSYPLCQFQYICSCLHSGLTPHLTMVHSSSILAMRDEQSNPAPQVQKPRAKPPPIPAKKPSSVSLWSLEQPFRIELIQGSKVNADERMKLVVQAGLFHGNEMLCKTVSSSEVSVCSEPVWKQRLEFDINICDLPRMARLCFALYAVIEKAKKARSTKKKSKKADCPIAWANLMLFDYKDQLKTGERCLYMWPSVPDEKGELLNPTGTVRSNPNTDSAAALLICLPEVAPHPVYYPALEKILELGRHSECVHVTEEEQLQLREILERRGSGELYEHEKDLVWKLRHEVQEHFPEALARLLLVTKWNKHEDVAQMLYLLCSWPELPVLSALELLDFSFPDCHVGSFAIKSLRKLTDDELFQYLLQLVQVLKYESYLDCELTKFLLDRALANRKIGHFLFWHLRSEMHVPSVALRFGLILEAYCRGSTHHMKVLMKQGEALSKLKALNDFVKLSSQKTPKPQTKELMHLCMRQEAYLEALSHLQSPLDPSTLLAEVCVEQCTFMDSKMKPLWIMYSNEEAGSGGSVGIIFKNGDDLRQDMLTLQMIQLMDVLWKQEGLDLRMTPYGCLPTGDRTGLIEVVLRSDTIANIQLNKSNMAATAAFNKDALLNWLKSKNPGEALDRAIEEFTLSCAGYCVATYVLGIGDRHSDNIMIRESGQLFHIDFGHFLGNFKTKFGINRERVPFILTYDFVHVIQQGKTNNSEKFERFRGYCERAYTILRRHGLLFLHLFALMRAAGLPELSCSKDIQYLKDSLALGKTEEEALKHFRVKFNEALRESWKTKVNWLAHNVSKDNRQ
Chain of PI3K (p110δ/p85α) (h) (P27986 whole entry partner): as the sequence (P27986 whole entry partner) above

half-life at 5 μM [1] | CLint scaled at 5 μM [1] | IC50 (PI3K (p110β/p85α) (h)) | IC50 (PI3K (p120γ) (h)) | clearance (CL) ([2]; dose 1 mg/kg) | bioavailability ([2]; iv dose 1 mg/kg) | AUC(0-t) ([2]; dose 1 mg/kg) | half-life ([2]; dose 1 mg/kg) | Vd ([2]; dose 1 mg/kg) | IC50 (PI3K (p110α/p85α) (h)) | half-life at 5 μM [3] | CLint scaled at 5 μM [3] | IC50 (PI3K (p110δ/p85α) (h)) | SMILES | other results
55.8 min | 1.87 L/h/kg | 0.674 µM | 0.112 µM | 1.70 L/h/kg | 111% | 0.596 µg·h/mL | 46.6 min | 1.69 L/kg | > 3 µM | 49.6 min | 3 L/h/kg | 0.008 µM | Cc1nnc(-c2c(N)ncnc2N[C@@H](C)c2nc3cccc(Cl)c3c(=O)n2-c2ccccc2)o1 [Ex. 64, (S)-2-(1-((6-amino-5-(5-methyl-1,3,4-oxadiazol-2-yl)pyrimidin-4-yl)amino)ethyl)-5-chloro-3-phenylquinazolin-4(3H)-one] | CL/F [4]: 1.13 L/h/kg; bioavailability [4]: 78.7%; AUC(0-t) [4]: 0.883 µg·h/mL; half-life [4]: 33.6 min; Vd [4]: 0.41 L/kg; CL/F [5]: 0.11 L/h/kg; bioavailability [5]: 76.3%; AUC(0-t) [5]: 10 µg·h/mL; half-life [5]: 218 min; Vd [5]: 0.48 L/kg; CL/F [6]: 0.43 L/h/kg; bioavailability [6]: 134%; AUC(0-t) [6]: 2.34 µg·h/mL; half-life [6]: 209 min; Vd [6]: 1.4 L/kg
47.9 min | 2.18 L/h/kg | 1.32 µM | 0.269 µM | – | – | – | – | – | > 3 µM | 17.9 min | 8.32 L/h/kg | 0.018 µM | Cc1noc(-c2c(N)ncnc2N[C@@H](C)c2nc3cccc(F)c3c(=O)n2-c2ccccc2)n1 [Ex. 63, (S)-2-(1-((6-amino-5-(3-methyl-1,2,4-oxadiazol-5-yl)pyrimidin-4-yl)amino)ethyl)-5-fluoro-3-phenylquinazolin-4(3H)-one] | –
36.7 min | 2.85 L/h/kg | 0.142 µM | 0.066 µM | 4.25 L/h/kg | 64.5% | 0.237 µg·h/mL | 71.4 min | 6.23 L/kg | 0.442 µM | 31 min | 4.81 L/h/kg | 0.002 µM | CC[C@H](Nc1ncnc(N)c1-c1nc(C)no1)c1nc2cccc(Cl)c2c(=O)n1-c1ccccc1 [Ex. 3, (S)-2-(1-((6-amino-5-(3-methyl-1,2,4-oxadiazol-5-yl)pyrimidin-4-yl)amino)-propyl)5-chloro-3-phenylquinazolin-4(3H)-one] | –
33.1 min | 3.15 L/h/kg | 0.154 µM | 0.037 µM | 7.74 L/h/kg | 88.7% | 0.26 µg·h/mL | 54.2 min | 9.09 L/kg | 1.01 µM | 32.6 min | 4.57 L/h/kg | 0.002 µM | Cc1noc(-c2c(N)ncnc2N[C@@H](C)c2nc3cccc(Cl)c3c(=O)n2-c2ccccc2)n1 [Ex. 65, (S)-2-(1-((6-amino-5-(3-methyl-1,2,4-oxadiazol-5-yl)pyrimidin-4-yl)amino)ethyl)-5-chloro-3-phenylquinazolin-4(3H)-one] | CL/F [4]: 1.90 L/h/kg; bioavailability [4]: 33.3%; AUC(0-t) [4]: 0.527 µg·h/mL; half-life [4]: 47.4 min; Vd [4]: 0.84 L/kg; CL/F [5]: 0.37 L/h/kg; bioavailability [5]: 24.8%; AUC(0-t) [5]: 2.69 µg·h/mL; half-life [5]: 636 min; Vd [5]: 4.25 L/kg; CL/F [6]: 0.92 L/h/kg; bioavailability [6]: 10%; AUC(0-t) [6]: 1.06 µg·h/mL; half-life [6]: 403 min; Vd [6]: 4.2 L/kg
53.5 min | 1.95 L/h/kg | – | 0.384 µM | – | – | – | – | – | – | 17.5 min | 8.53 L/h/kg | 0.003 µM | CC[C@H](Nc1ncnc(N)c1-c1nnc(C)o1)c1nc2cccc(Cl)c2c(=O)n1-c1ccccc1 [Ex. 1, (S)-2-(1-((6-amino-5-(5-methyl-1,3,4-oxadiazol-2-yl)pyrimidin-4-yl)amino)-propyl)-5-chloro-3-phenylquinazolin-4(3H)-one] | clearance (CL) ([2]; dose 0.5 mg/kg): 2.84 L/h/kg; bioavailability ([2]; iv dose 0.5 mg/kg): 32.3%; AUC(0-t) ([2]; dose 0.5 mg/kg): 0.355 µg·h/mL; half-life ([2]; dose 0.5 mg/kg): 46.8 min; Vd ([2]; dose 0.5 mg/kg): 3.68 L/kg
29.8 min | 3.5 L/h/kg | 1.36 µM | > 3 µM | – | – | – | – | – | > 3 µM | 8.94 min | 16.7 L/h/kg | 0.012 µM | CC[C@H](Nc1ncnc(N)c1-c1nnc(C)o1)c1nc2cccc(Cl)c2c(=O)n1-c1cccc(F)c1 [Ex. 34, (S)-2-(1-((6-amino-5-(5-methyl-1,3,4-oxadiazol-2-yl)pyrimidin-4-yl)amino)-propyl)-5-chloro-3-(3-fluorophenyl)quinazolin-4(3H)-one] | –
69.3 min | 1.5 L/h/kg | 0.502 µM | 0.893 µM | 3.11 L/h/kg | 75.5% | 0.323 µg·h/mL | 57 min | 4.09 L/kg | 2.75 µM | 15.6 min | 9.55 L/h/kg | 0.011 µM | CC[C@H](Nc1ncnc(N)c1-c1nc(C)no1)c1nc2cccc(F)c2c(=O)n1-c1ccccc1 [Ex. 39, (S)-2-(1-((6-amino-5-(3-methyl-1,2,4-oxadiazol-5-yl)pyrimidin-4-yl)amino)-propyl)-5-fluoro-3-phenylquinazolin-4(3H)-one] | –
41 min | 2.54 L/h/kg | 0.035 µM | 0.261 µM | 5.06 L/h/kg | 46.5% | 0.2 µg·h/mL | 65.4 min | 6.68 L/kg | 1.2 µM | 22.4 min | 6.66 L/h/kg | 0.005 µM | Cc1noc(-c2c(N)ncnc2N[C@@H](C)c2nc3cccc(Cl)c3c(=O)n2C2CC2)n1 [Ex. 41, (S)-2-(1-((6-amino-5-(3-methyl-1,2,4-oxadiazol-5-yl)pyrimidin-4-yl)amino)-ethyl)-5-chloro-3-cyclopropylquinazolin-4(3H)-one] | –
78.2 min | 1.33 L/h/kg | > 3 µM | – | – | – | – | – | – | – | 62.2 min | 2.39 L/h/kg | 1.47 µM | CC[C@H](Nc1ncnc(N)c1-c1ccccn1)c1nc2cccc(Cl)c2c(=O)n1C1CC1 [Ex. 11, (S)-2-(1-((6-amino-5-(pyridin-2-yl)pyrimidin-4-yl)amino)propyl)-5-chloro-3-cyclopropylquinazolin-4(3H)-one] | clearance (CL) ([2]; dose 0.5 mg/kg): 0.29 L/h/kg; bioavailability ([2]; iv dose 0.5 mg/kg): 38.5%; AUC(0-t) ([2]; dose 0.5 mg/kg): 1.69 µg·h/mL; half-life ([2]; dose 0.5 mg/kg): 157 min; Vd ([2]; dose 0.5 mg/kg): 0.59 L/kg
32.1 min | 3.24 L/h/kg | 0.168 µM | 1.93 µM | 2.47 L/h/kg | 63.9% | 0.405 µg·h/mL | 75.6 min | 3.93 L/kg | > 3 µM | 31.4 min | 4.75 L/h/kg | 0.033 µM | CC[C@H](Nc1ncnc(N)c1-c1nnc(C)o1)c1nc2cccc(Cl)c2c(=O)n1C1CC1 [Ex. 2, (S)-2-(1-((6-amino-5-(5-methyl-1,3,4-oxadiazol-2-yl)pyrimidin-4-yl)amino)-propyl)-5-chloro-3-cyclopropylquinazolin-4(3H)-one] | –
92 min | 1.13 L/h/kg | > 3 µM | – | – | – | – | – | – | – | 70.1 min | 2.13 L/h/kg | 2.51 µM | CC[C@H](Nc1ncnc(N)c1-c1ncnn1C)c1nc2cccc(Cl)c2c(=O)n1-c1ccccc1 [Ex. 10, 2-((1S)-1-((6-amino-5-(1-methyl-1H-1,2,4-triazol-5-yl)pyrimidin-4-yl)amino)propyl)-5-chloro-3-phenylquinazolin-4(3H)-one] | clearance (CL) ([2]; dose 0.5 mg/kg): 0.21 L/h/kg; bioavailability ([2]; iv dose 0.5 mg/kg): 40.2%; AUC(0-t) ([2]; dose 0.5 mg/kg): 2.42 µg·h/mL; half-life ([2]; dose 0.5 mg/kg): 72 min; Vd ([2]; dose 0.5 mg/kg): 0.3 L/kg
